Where “and” joins values, the source holds several entries; their conditions need not be identical. Identical values can stand only once.
Legend:
MAO-A = molecular target: T1, MAO-A (Homo sapiens, UniProt P21397); test: MAO-A inhibition, kynuramine method; assay type: biochemical; settings: at the concentration of 10.0 μM; n.a. = no active, percent inhibition <5.0%; read-out: %Inhibition MAO-A
T1 sequence (P21397 1-527): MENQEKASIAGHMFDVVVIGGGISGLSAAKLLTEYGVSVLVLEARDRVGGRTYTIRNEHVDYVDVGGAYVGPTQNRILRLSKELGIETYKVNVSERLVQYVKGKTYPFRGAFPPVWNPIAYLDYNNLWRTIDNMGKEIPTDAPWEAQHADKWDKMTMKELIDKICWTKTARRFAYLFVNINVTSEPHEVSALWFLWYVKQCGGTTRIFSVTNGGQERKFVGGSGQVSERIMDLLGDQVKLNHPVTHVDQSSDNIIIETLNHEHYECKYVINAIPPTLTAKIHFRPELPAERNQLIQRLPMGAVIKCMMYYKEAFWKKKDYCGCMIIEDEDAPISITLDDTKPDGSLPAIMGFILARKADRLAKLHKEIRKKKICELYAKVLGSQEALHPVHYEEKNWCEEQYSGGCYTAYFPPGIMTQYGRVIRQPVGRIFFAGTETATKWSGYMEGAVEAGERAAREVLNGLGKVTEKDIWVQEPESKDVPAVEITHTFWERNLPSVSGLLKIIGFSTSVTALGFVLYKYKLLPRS

[1] = Oxygen radical absorbance capacity assay with fluorescein (ORAC-FL); settings: Trolox as standard
Description: Oxygen radical absorbance capacity assay which used fluorescein (ORAC-FL) was performed to measure the antioxidant activities of 2-(4-(benzyloxy)-5-(hydroxyl) phenyl) benzothiazole derivatives. […] It reflected that introduction of alkyl substituents on benzyloxy ring was more beneficial for the improvement of in vitro antioxidant activity. However, the position and number of substituents seem to have little influence on the antioxidative activities.
Test compounds solution (20 µL, 10 µM) and fluorescein solution (120 µL, 250 nM) were added to a black 96-wells plate in order. The mixture was incubated for 15 min at 37 °C. Then, AAPH solution (60 µL, 40 mM) was added through an automatic sampler. The fluorescence was recorded with excitation and emission wavelengths at 485 and 535 nm on the multifunctional enzyme marker (Thermo Scientific), and the area under the curve (AUC) was calculated automatically. Trolox was used as a reference, and the antioxidant activities of the compounds were expressed as Trolox equivalent. The test compound solution was replaced with PBS (20 µL) in blank well. The antioxidant activities of the test compounds were calculated by the formula: [(AUCsample − AUCblank)/(AUCtrolox − AUCblank)] × [(Trolox concentration/test sample concentration)].

MAO-B = molecular target: T2, MAO-B (Homo sapiens, UniProt P27338); test: Kinetic study of MAO-B inhibition (Lineweaver-Burk plots); assay type: biochemical
T2 sequence (P27338 1-520): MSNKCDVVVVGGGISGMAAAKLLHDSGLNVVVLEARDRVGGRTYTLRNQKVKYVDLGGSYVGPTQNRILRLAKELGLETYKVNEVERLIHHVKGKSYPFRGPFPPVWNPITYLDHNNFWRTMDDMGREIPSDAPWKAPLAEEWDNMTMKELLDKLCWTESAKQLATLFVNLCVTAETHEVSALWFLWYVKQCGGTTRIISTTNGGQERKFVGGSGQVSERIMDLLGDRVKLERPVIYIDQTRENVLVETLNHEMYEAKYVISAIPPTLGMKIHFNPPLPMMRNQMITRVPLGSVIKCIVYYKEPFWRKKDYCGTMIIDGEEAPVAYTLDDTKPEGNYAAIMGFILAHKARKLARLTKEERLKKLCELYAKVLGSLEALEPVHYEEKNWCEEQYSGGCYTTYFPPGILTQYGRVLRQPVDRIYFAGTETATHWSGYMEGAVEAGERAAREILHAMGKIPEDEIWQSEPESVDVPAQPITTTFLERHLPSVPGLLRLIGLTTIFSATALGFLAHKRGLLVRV
Description: Kinetic study[35]^,[36] was conducted to figure out the MAO-B inhibitory mechanism of 2-(4-(benzyloxy)-5-(hydroxyl) phenyl) benzothiazole derivatives, with 3h as the test compound. […] The graphical of the reciprocal Lineweaver-Burk plots was depicted in Figure 2(A).
The kinetic study of 3h was conducted by the method which is similar with the inhibition experiment of MAOs. Different concentrations of 3h (0.124, 0.062, and 0.031 µM) and kynuramine (15, 30, 60, and 90 µM) solutions were selected. The control experiment was performed without 3h. The method of data analysis has been described previously.

[2] = Metal-chelating study by UV spectra; assay type: physicochemical; settings: 75.0 μM in methanol; shifted from 335.5 nm
Description: Particularly, after the addition of FeSO4, maximum increase in absorption was detected. Besides, after the addition of CuCl2, maximum absorption peak shifted from 335.5 to 382.0 nm.
UV spectrum method was conducted to clarify the metal chelating ability of 2-(4-(benzyloxy)-5-(hydroxyl) phenyl) benzothiazole derivatives. Test compound solution (1.0 ml, 75 µM in methanol) and metal ion solution (1.0 ml, 75 µM in methanol) were added to a vial. The vial was placed at room temperature for 2 h. Then, the mixture was removed from the vial to a quartz cell. After transfer, the absorbance of the mixture at 200–800 nm was measured by using UV spectrophotometer (Shimadzu UV-1900i).

[3] = test system: NO release in LPS-activated BV-2 microglia cells; test: LPS-induced NO release in BV-2 cells (Griess method); assay type: cell-based; settings: Mus musculus, LPS 1.0 µg/mL, read-out: inhibitory rate of LPS-induced NO release
Description: Then, Griess method was performed to measure the inhibitory effect of 3h on LPS-induced NO release in BV-2 cells. […] It reflected that LPS could induce the activation of BV-2 cells and induce neuroinflammation.
(§1) ELISA and Griess reaction methods were performed to detect the inhibitory effect of 3h on the release of TNF-α and NO in LPS-stimulated BV-2 cells[46]^,[47]. BV-2 cells in the logarithmic phase were seeded into 96-well cell culture plate, and these cells were incubated at 37 °C for 24 h at the atmosphere of 5% CO2. After incubation, the culture solution was replaced by fresh one (90 µL without serum), and test compound solution (10 µL) was added. After addition, the plate was incubated for 30 min, then LPS (10 µL, 1.0 µg/ml in PBS) was added to each well, and the mixture would be incubated for another 24 h at 37 °C. After the final incubation, the supernatants were taken out to measure the level of TNF-α and NO according to the procedures depicted on the kits (kits were purchased from Nanjing Jiancheng Bioengineering Institute).

[4] = test system: TNF-α production in LPS-activated BV-2 microglia cells; test: LPS-induced TNF-α production in BV-2 cells (ELISA); assay type: cell-based; settings: Mus musculus, LPS 1.0 µg/mL, read-out: inhibition rate of LPS-induced TNF-α production
Description: ELISA method was carried out to detect the inhibitory effects of 3h on LPS-induced TNF-α production. As shown in Figure 8(B), the level of TNF-α expression was dramatically raised when BV-2 cells were exposed to LPS (1.0 µg/mL).
as §1

inhibition at 10 µM (MAO-A): 39.7 ± 0.54%
MAO-B inhibition pattern (MAO-B; Lineweaver-Burk plots): competitive
Ki (MAO-B; from slopes of Lineweaver-Burk plots vs. inhibitor concentration, kynuramine substrate, read-out: competitive inhibition constant (Ki)): 102 nM
maximum absorption peak after the addition of CuCl2 [2]: 382.0 nm
SMILES: Oc1cc(OCc2ccc(F)cc2)ccc1-c1nc2ccccc2s1 [3h, 2-(Benzo[d]thiazol-2-yl)-5-((4-fluorobenzyl)oxy)phenol]
ORAC [1]: 2.27 Trolox equivalents and 2.27 ± 0.08 Trolox equivalents
inhibition at 0.5 µM ([3]; 0.5 µM): 15.8%
inhibition at […] ([3]; 2.5 µM): 35.8%
inhibition at 10 µM ([3]; 10.0 µM): 63.7%
inhibition at 0.5 µM ([4]; 0.5 µM): 7.8%
inhibition at […] ([4]; 2.5 µM): 25.7%
inhibition at 10 µM ([4]; 10.0 µM): 52.5%

Source: article PMC9897792, “Discovery of novel 2-(4-(benzyloxy)-5-(hydroxyl) phenyl) benzothiazole derivatives as multifunctional MAO-B inhibitors for the treatment of Parkinson’s disease” (Journal of Enzyme Inhibition and Medicinal Chemistry, 2023)
